Read-outs that look alike come from different tables or passages of the source.
Assays:
HepG2 cells = test: LDH leakage assay in HepG2; type: cell-based; conditions: Homo sapiens, mean ± SEM, n = 3, read-out: EC50 (effective concentration)
Method: (§1) The HepG2 cell line was purchased from the American Type Culture Collection (ATCC® HB-8065™). The cells were cultured in Minimum Essential Medium Eagle (MEME) (Sigma–Aldrich Co. (St. Louis, MO, USA)). Normal murine embryonic fibroblasts, Balb/c 3T3 clone A31 cell line (gift from Department of Swine Diseases of the National Veterinary Research Institute in Pulawy) was cultured in Dulbecco’s Modified Eagle’s Medium (DMEM) (Invitrogen Corporations (Paisley, UK)). The media were supplemented with 10% BCS (Balb/c 3T3), 10% FBS (HepG2), 1% L-glutamine, and 1% antibiotic solution. The cells were maintained in 75 cm^2 cell culture flasks in humidified incubator at 37 °C, in an atmosphere of 5% CO2. […] The initial cell viability was determined with the trypan blue exclusion test. […]
(§2) The concentration ranges of the drugs were chosen according to their solubility and their plasma level. […] The cytotoxicity was assessed after 24 and 48 h of exposure of cell lines or after 12 and 24 h exposure of PHH. […]
(§3) The integrity of the plasma membrane was assessed through the test of lactate dehydrogenase (LDH) release, which was monitored using a commercially available Cytotoxicity Detection Kit (LDH) (Roche Diagnostics, Basel, Switzerland). […] The absorbance was measured at 492 nm in a microplate reader using a blank as a reference.

Balb/c 3T3 cells = test: LDH leakage assay in Balb/c 3T3; type: cell-based; conditions: Mus musculus, BALB/c3T3, Balb/c 3T3, LDH, mean ± SEM, n = 3, read-out: EC50 (effective concentration)
Method: as §1, §2, §3

Balb/c 3T3 fibroblasts = test: Biotransformation of SAL and metabolites in Balb/c 3T3 fibroblasts (LC-MS/MS); type: in vitro ADME, mouse; conditions: 24 h (Figure 2B)
Method: as §1
The medium samples from microplate wells were collected for identifying SAL metabolites and normalized to a cell number. An aliquot of 200 µL of each sample was measured to Eppendorf tube. […] The dry residue was reconstituted in 50% acetonitrile and analyzed with LC-MS/MS. […]
SAL (m/z 773.4 to m/z 431.3) was monitored in multiple reaction monitoring (MRM) modes. […]
The signals for further analysis were selected with the LightSight 2.3 software. […] These MRM transitions (with 20 chromatographic peaks) were then quantified with Multiquant 2.1. software. Quantitative analysis was performed for SAL. […]

rabbits = conditions: cited from earlier work
hepatoma tumor = conditions: mice, doses of 4 and 8 mg/kg b.w.; cited from earlier work
cell lines = conditions: cited from earlier work

Which results are given for CC[C@@H](C(=O)[C@@H](C)[C@@H](O)[C@H](C)[C@@H]1O[C@@H]([C@@H](CC)C(=O)O)CC[C@@H]1C)[C@H]1O[C@]2(C=C[C@@H](O)[C@]3(CC[C@@](C)([C@H]4CC[C@](O)(CC)[C@H](C)O4)O3)O2)[C@H](C)C[C@@H]1C [SAL, salinomycin]?
EC50 (HepG2 cells; 24 h exposure): > 25 µg/mL; EC50 (HepG2 cells; 48 h exposure): 13.8 ± 0.2 µg/mL; EC50 (Balb/c 3T3 cells; 24 h exposure): > 25 µg/mL; EC50 (Balb/c 3T3 cells; 48 h exposure): 23.1 ± 0.8 µg/mL; biotransformation of SAL (Balb/c 3T3 fibroblasts): no biotransformation; LD50 (rabbits): 21 mg/kg b.w.; effect on hepatoma tumor (hepatoma tumor): significantly reducing the hepatoma tumor; EC50 (cell lines): 0.1 to 30 µM; EC50 values, cytotoxicity to cell lines (cell lines): 0.08 to 22.5 µg/mL

Source: publication PMC7179450, “Primary Human Hepatocytes, But not HepG2 or Balb/c 3T3 Cells, Efficiently Metabolize Salinomycin and Are Resistant to Its Cytotoxicity” (Molecules, 2020)
